Tests used:
[1] = system: MOLM-14 cells; test: Cell viability dose-response matrix of MK256 and venetoclax; type: cell-based; conditions: Homo sapiens, MK256 0.0 nM, 72 hrs, read-out: percentage of cell viability
From the text: Our earlier experiments showing the clearly increasing expression of BCL-2 in the MOLM-14 cell line led us to ask if there was any combinational effect between MK256 and a BCL-2 inhibitor in MOLM-14 cells. To address this question, we chose venetoclax (ABT-199), an FDA-approved BCL-2 inhibitor for AML and CLL, for the combination study. We treated MOLM-14 cells with MK256 and venetoclax at a series of concentration combinations, measured cell viability, and reported the data in a dose-response matrix (Figure 8). […] We also investigated the apoptotic effect of the combination treatment in the MOLM-14 cell line (Figure 10B).
Figure 10 (A) Dose-response matrix of percentage of cell viability of 10,000 MOLM-14 cells after 72 hrs treatment of MK256 and venetoclax at various concentration combinations. (B) Annexin V staining of 10,000 MOLM-14 cells after 72 hrs treatment of MK256 and venetoclax(ABT199) at various concentration combinations. Status of cells are labeled in the graph at the upper left corner. (C) Tumor growth of MOLM-14 xenograft model. Groups of control; ABT199 (25 mg/kg); ABT199 (25 mg/kg) + MK256 (10 mg/kg); ABT199 25 mg/kg + MK256 (50 mg/kg) were shown in straight line, dotted line, 3 dashed line and 2 dashed line, respectively. ^*** P < 0.001. (D) Body weight percentage of MOLM-14 tumor model. […]

[2] = system: MOLM-14 xenograft model; test: MOLM-14 xenograft efficacy study, combination with venetoclax; type: in vivo, NOD SCID mice; conditions: venetoclax 25 mg/kg alone, oral once a day, 5 days on/2 days off
Procedure: In an efficacy study of the combination of MK256 and venetoclax in the MOLM-14 tumor model, we compared venetoclax 25 mg/kg, venetoclax 25 mg/kg + MK256 10 mg/kg, and venetoclax 25 mg/kg + MK256 50 mg/kg. Compounds were given orally once a day on a 5 days on/2 days off schedule.
Female NOD SCID mice were purchased from Charles River Laboratories (Wilmington, USA) or bred at the animal facilities of the University of California San Francisco. All animal experiments were carried out under protocols approved by the Institutional Animal Care and Use Committee of the University of California San Francisco. For MOLM-14 model, 200 ul of 1 × 10^6 cells combined with matrigel (v/v, 1:1) were injected subcutaneously in the right flank of NODSCID mice. Tumors were allowed to grow for two weeks to reach a tumor volume about 200 mm^3 before mice were randomly grouped. The animals were treated for three weeks on a 5 days on/2 days off schedule by oral gavage with MK256 (dissolved in saline) alone or in combination with Venetoclax (dissolved in 5% DMSO + 50% PEG 300 + 5% Tween 80 + ddH2O). […] In the combination study, MK256 (10 or 50 mg/kg) and was coadministered with Venetoclax (25 mg/kg) once a day. Tumor volume and body weight were monitored once every 3 days. Tumor volume was calculated as L × W^2/2, where L and W were the length and width of the tumor, respectively.

CC1(C)CCC(CN2CCN(c3ccc(C(=O)NS(=O)(=O)c4ccc(NCC5CCOCC5)c([N+](=O)[O-])c4)c(Oc4cnc5[nH]ccc5c4)c3)CC2)=C(c2ccc(Cl)cc2)C1 [Venetoclax, venetoclax, reference compound]
viability at 0.0002 µM ([1]; Venetoclax 0.2 nM): 65%
viability at 0.0014 µM ([1]; Venetoclax 1.4 nM): 45%
viability at 0.0041 µM ([1]; Venetoclax 4.1 nM): 26%
viability at 0.0123 µM ([1]; Venetoclax 12.3 nM): 12%
viability at 0.037 µM ([1]; Venetoclax 37 nM): 8%
viability at 0.1111 µM ([1]; Venetoclax 111.1 nM): 7%
viability at 0.3333 µM ([1]; Venetoclax 333.3 nM): 5%
viability at 1 µM ([1]; Venetoclax 1000 nM): 2%
viability at 3 µM ([1]; Venetoclax 3000 nM): 0%
tumor growth inhibition [2]: 15%

Reference: PMC9629815, “MK256 is a novel CDK8 inhibitor with potent antitumor activity in AML through downregulation of the STAT pathway” (Oncotarget, 2022)
